Experimental data as given in patent US20230265151A1, “GIP/GLP1 CO-AGONIST COMPOUNDS” (priority 2020, published 2023).
Read-outs that look alike come from different tables or passages of the source.

Columns and labels:
[1] = molecular target: T1, hGIPR (Homo sapiens, UniProt P48546); assay: Functional cAMP formation (HTRF) in HEK-293 clonal cells expressing hGIPR, 0.1% bovine casein, without or with 1.0% human serum albumin; format: cell-based; conditions: for Emax: percent of maximal response to GIP(1-42)NH2; for EC50: cAMP
T1 construct: expressed in transfected cells
T1 sequence (P48546 22-466): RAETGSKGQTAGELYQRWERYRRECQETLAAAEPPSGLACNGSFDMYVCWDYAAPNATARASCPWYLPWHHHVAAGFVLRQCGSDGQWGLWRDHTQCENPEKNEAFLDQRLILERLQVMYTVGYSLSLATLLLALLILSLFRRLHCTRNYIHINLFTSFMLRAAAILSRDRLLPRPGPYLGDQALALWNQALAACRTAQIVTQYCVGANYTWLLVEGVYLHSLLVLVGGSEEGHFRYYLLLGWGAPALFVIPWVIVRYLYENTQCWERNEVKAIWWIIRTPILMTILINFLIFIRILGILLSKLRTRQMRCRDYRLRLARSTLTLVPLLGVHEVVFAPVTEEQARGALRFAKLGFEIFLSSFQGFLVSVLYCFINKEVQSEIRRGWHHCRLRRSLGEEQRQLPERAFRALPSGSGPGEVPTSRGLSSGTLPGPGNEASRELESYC
In short: (§1)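 Readings of the HTRF 665/620 nm ratio, which falls as cAMP rises, were converted to nM cAMP using a standard curve after 30 min peptide exposure at 37° C.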

[2] = molecular target: T2, hGCGR (Homo sapiens, UniProt P47871); assay: Functional cAMP formation (HTRF) in HEK-293 clonal cells expressing hGCGR, 0.1% bovine casein, without or with 1.0% human serum albumin; format: cell-based; conditions: cAMP, 37° C.
T2 construct: expressed in transfected cells
In short: as §1

[3] = molecular target: T3, human GLP-1 receptor (hGLP-1R) (Homo sapiens, UniProt P43220); assay: [125I]-GLP-1 binding, SPA with membranes of HEK293 cells expressing hGLP-1R
T3 construct: expressed in transfected cells; crude membranes

[4] = molecular target: hGLP-1R (Homo sapiens, UniProt P43220); assay: Functional cAMP formation (HTRF) in HEK-293 clonal cells expressing hGLP-1R, 0.1% bovine casein, without or with 1.0% human serum albumin; format: cell-based; parameters: expressed in transfected cells; conditions: for Emax: percent of maximal response to GLP-1(7-36)NH2; for EC50: cAMP
In short: as §1

[5] = molecular target: T4, human GIP receptor (hGIPR) (Homo sapiens, UniProt P48546); assay: [125I]-GIP binding, SPA with membranes of CHO cells expressing hGIPR
T4 construct: expressed in transfected cells; crude membranes
T4 sequence (P48546 22-466): T1 sequence (P48546 22-466)

[6] = hGIPR EC50, nM (SEM, n), 37° C., 0.1% bovine casein (no human serum albumin), geometric mean
[7] = hGIPR EC50, nM (SEM, n), 37° C., 0.1% bovine casein and 1.0% human serum albumin, geometric mean (SEM, n)
[8] = hGCGR EC50, nM (SEM, n), 0.1% bovine casein (no human serum albumin), geometric mean
[9] = hGCGR EC50, nM (SEM, n), 0.1% bovine casein and 1.0% human serum albumin, geometric mean (SEM, n)
[10] = HEK293, read-out: hGLP-1R Emax, % ± SEM, cAMP, 37° C., 0.1% bovine casein, arithmetic mean
[11] = hGLP-1R EC50, nM (SEM, n), 37° C., 0.1% bovine casein (no human serum albumin), geometric mean
[12] = HEK293, cAMP, 37° C., 0.1% bovine casein and 1.0% human serum albumin, read-out: hGIPR Emax, % ± SEM
[13] = 37° C., 0.1% bovine casein (no human serum albumin), geometric mean, read-out: hGIPR EC50, nM (SEM, n)
[14] = 0.1% bovine casein (no human serum albumin), geometric mean, read-out: hGCGR EC50, nM (SEM, n)
[15] = 0.1% bovine casein and 1.0% human serum albumin, geometric mean (SEM, n), read-out: hGCGR EC50, nM (SEM, n)
[16] = human GLP-1R, geometric mean (SEM, n), read-out: Binding Affinity Ki, nM (SEM, n) hGLP-1R
[17] = HEK293, cAMP, 37° C., 0.1% bovine casein, arithmetic mean, read-out: hGLP-1R Emax, % ± SEM
[18] = 37° C., 0.1% bovine casein (no human serum albumin), geometric mean, read-out: hGLP-1R EC50, nM (SEM, n)
[19] = human GIPR, geometric mean (SEM, n), read-out: Binding Affinity Ki, nM (SEM, n) hGIPR

T2 sequence (P47871 26-477): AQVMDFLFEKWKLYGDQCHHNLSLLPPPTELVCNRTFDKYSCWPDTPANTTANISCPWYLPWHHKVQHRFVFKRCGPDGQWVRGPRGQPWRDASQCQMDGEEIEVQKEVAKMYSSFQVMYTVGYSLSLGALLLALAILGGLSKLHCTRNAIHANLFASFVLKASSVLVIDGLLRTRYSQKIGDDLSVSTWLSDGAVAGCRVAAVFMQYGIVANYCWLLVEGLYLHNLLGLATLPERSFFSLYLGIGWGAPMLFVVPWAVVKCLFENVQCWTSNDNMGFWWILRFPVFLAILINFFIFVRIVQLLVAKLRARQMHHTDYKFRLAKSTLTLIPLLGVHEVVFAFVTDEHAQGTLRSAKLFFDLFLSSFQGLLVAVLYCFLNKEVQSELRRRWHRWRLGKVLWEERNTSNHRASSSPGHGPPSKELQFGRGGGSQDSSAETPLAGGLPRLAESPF
Sequence of hGLP-1R (P43220 24-463): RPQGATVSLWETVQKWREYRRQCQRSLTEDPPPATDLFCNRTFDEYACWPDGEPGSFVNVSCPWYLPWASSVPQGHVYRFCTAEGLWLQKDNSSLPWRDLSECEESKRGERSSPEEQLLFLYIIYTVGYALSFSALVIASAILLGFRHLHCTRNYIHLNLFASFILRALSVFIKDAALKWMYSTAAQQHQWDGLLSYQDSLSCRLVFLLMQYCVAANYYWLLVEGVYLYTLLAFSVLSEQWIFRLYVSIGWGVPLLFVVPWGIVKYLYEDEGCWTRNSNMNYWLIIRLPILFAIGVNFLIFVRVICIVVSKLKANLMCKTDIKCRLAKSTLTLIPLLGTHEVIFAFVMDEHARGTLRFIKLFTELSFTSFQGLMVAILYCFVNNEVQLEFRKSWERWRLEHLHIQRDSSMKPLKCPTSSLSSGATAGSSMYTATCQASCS
T3 sequence (P43220 24-463): as above

Structure (SMILES) | EC50 [1, 6] [nM] | EC50 [1, 7] [nM] | EC50 [2, 8] [nM] | EC50 [2, 9] [nM] | Ki [3] [nM] | Emax [4, 10] [%] | EC50 [4, 11] [nM] | Ki [5] [nM] | Emax [1, 12] [%] | EC50 [1, 13] [nM] | EC50 [2, 14] [nM] | EC50 [2, 15] [nM] | Ki [3, 16] [nM] | Emax [4, 17] [%] | EC50 [4, 18] [nM] | Ki [5, 19] [nM] | also measured
CC[C@H](C)[C@H](NC(=O)[C@H](CC(C)C)NC(=O)[C@](C)(Cc1ccc(O)cc1)NC(=O)[C@H](CCCCNC(=O)COCCOCCNC(=O)CC[C@H](NC(=O)CCCCCCCCCOc1ccc(C(=O)O)cc1)C(=O)O)NC(=O)[C@@H](NC(=O)[C@H](Cc1ccccc1)NC(=O)[C@H](CCCN)NC(=O)C(C)(C)NC(=O)[C@H](CCC(N)=O)NC(=O)[C@H](C)NC(=O)[C@H](CCC(N)=O)NC(=O)[C@H](CCCN)NC(=O)[C@H](CC(=O)O)NC(=O)[C@H](CC(C)C)NC(=O)[C@](C)(CC(C)C)NC(=O)[C@@H](NC(=O)C(C)(C)NC(=O)[C@H](Cc1ccncc1)NC(=O)[C@H](CC(=O)O)NC(=O)[C@H](CO)NC(=O)[C@@H](NC(=O)[C@](C)(Cc1ccccc1F)NC(=O)[C@@H](NC(=O)CNC(=O)[C@H](CCC(=O)O)NC(=O)C(C)(C)NC(=O)[C@@H](N)Cc1ccc(O)cc1)[C@@H](C)O)[C@@H](C)O)[C@@H](C)CC)[C@@H](C)CC)C(=O)N[C@@H](CCCCNC(=O)COCCOCCNC(=O)CC[C@H](NC(=O)CCCCCCCCCOc1ccc(C(=O)O)cc1)C(=O)O)C(=O)NCC(=O)NCC(=O)N1CCC[C@H]1C(=O)N[C@@H](CO)C(=O)N[C@@H](CO)C(=O)NCC(=O)N[C@@H](C)C(=O)N1CCC[C@H]1C(=O)N1CCC[C@H]1C(=O)N1CCC[C@H]1C(=O)N[C@@H](CO)C(N)=O [Example 463] | 0.0124 | 0.35 | > 9950 | > 9950 | 0.143 | 111 | 0.267 | 0.0183 |  |  |  |  |  |  |  |  | Emax ([1]; HEK293, read-out: hGIPR Emax, % ± SEM, cAMP, 37° C., 0.1% bovine casein, arithmetic mean): 91.4%
CC[C@H](C)[C@H](NC(=O)[C@H](CC(C)C)NC(=O)[C@](C)(Cc1ccc(O)cc1)NC(=O)[C@H](CCCCNC(=O)CCOCCOCCOCCOCCOCCOCCNC(=O)CC[C@H](NC(=O)CCCCCCCCCCCCC(=O)O)C(=O)O)NC(=O)[C@@H](NC(=O)[C@H](Cc1ccccc1)NC(=O)[C@H](CCCN)NC(=O)C(C)(C)NC(=O)[C@H](CCC(N)=O)NC(=O)[C@H](C)NC(=O)[C@H](CCC(N)=O)NC(=O)[C@H](CCCN)NC(=O)[C@H](CC(=O)O)NC(=O)[C@H](CC(C)C)NC(=O)[C@](C)(CC(C)C)NC(=O)[C@@H](NC(=O)C(C)(C)NC(=O)[C@H](Cc1ccncc1)NC(=O)[C@H](CC(=O)O)NC(=O)[C@H](CO)NC(=O)[C@@H](NC(=O)[C@](C)(Cc1ccccc1F)NC(=O)[C@@H](NC(=O)CNC(=O)[C@H](CCC(=O)O)NC(=O)C(C)(C)NC(=O)[C@@H](N)Cc1ccc(O)cc1)[C@@H](C)O)[C@@H](C)O)[C@@H](C)CC)[C@@H](C)CC)C(=O)N[C@@H](CCCCNC(=O)CCOCCOCCOCCOCCOCCOCCNC(=O)CC[C@H](NC(=O)CCCCCCCCCCCCC(=O)O)C(=O)O)C(=O)NCC(=O)NCC(=O)N1CCC[C@H]1C(=O)N[C@@H](CO)C(=O)N[C@@H](CO)C(=O)NCC(=O)N[C@@H](C)C(=O)N1CCC[C@H]1C(=O)N1CCC[C@H]1C(=O)N1CCC[C@H]1C(=O)N[C@@H](CO)C(N)=O [Example 466] |  |  |  |  |  |  |  |  | 93.4 | 0.00971 | > 10100 | > 10100 | 0.2 | 105 | 0.156 | 0.0199 | Emax ([1]; HEK293, cAMP, 37° C., 0.1% bovine casein, arithmetic mean, read-out: hGIPR Emax, % ± SEM): 98.8%
CC[C@H](C)[C@H](NC(=O)[C@H](CC(C)C)NC(=O)[C@](C)(Cc1ccc(O)cc1)NC(=O)[C@H](CCCCNC(=O)COCCOCCNC(=O)COCCOCCNC(=O)CC[C@H](NC(=O)CC[C@H](NC(=O)CCCCCCCCCCCCC(=O)O)C(=O)O)C(=O)O)NC(=O)[C@@H](NC(=O)[C@H](Cc1ccccc1)NC(=O)[C@H](CCCN)NC(=O)C(C)(C)NC(=O)[C@H](CCC(N)=O)NC(=O)[C@H](C)NC(=O)[C@H](CCC(N)=O)NC(=O)[C@H](CCCN)NC(=O)[C@H](CC(=O)O)NC(=O)[C@H](CC(C)C)NC(=O)[C@](C)(CC(C)C)NC(=O)[C@@H](NC(=O)C(C)(C)NC(=O)[C@H](Cc1ccncc1)NC(=O)[C@H](CC(=O)O)NC(=O)[C@H](CO)NC(=O)[C@@H](NC(=O)[C@](C)(Cc1ccccc1F)NC(=O)[C@@H](NC(=O)CNC(=O)[C@H](CCC(=O)O)NC(=O)C(C)(C)NC(=O)[C@@H](N)Cc1ccc(O)cc1)[C@@H](C)O)[C@@H](C)O)[C@@H](C)CC)[C@@H](C)CC)C(=O)N[C@@H](CCCCNC(=O)COCCOCCNC(=O)COCCOCCNC(=O)CC[C@H](NC(=O)CC[C@H](NC(=O)CCCCCCCCCCCCC(=O)O)C(=O)O)C(=O)O)C(=O)NCC(=O)NCC(=O)N1CCC[C@H]1C(=O)N[C@@H](CO)C(=O)N[C@@H](CO)C(=O)NCC(=O)N[C@@H](C)C(=O)N1CCC[C@H]1C(=O)N1CCC[C@H]1C(=O)N1CCC[C@H]1C(=O)N[C@@H](CO)C(N)=O [Example 474] |  |  |  |  |  |  |  |  | 85.6 | 0.0106 | > 9950 | > 9950 | 0.343 | 113 | 0.123 | 0.0427 | EC50 ([4]; 37° C., 0.1% bovine casein and 1.0% human serum albumin, geometric mean (SEM, n), read-out: hGLP-1R EC50, nM (SEM, n)): 1.1 nM
CC[C@H](C)[C@H](NC(=O)[C@H](CC(C)C)NC(=O)[C@](C)(Cc1ccc(O)cc1)NC(=O)[C@H](CCCCNC(=O)COCCOCCNC(=O)COCCOCCNC(=O)COCCOCCNC(=O)CC[C@H](NC(=O)CCCCCCCCCOc1ccc(C(=O)O)cc1)C(=O)O)NC(=O)[C@@H](NC(=O)[C@H](Cc1ccccc1)NC(=O)[C@H](CCCN)NC(=O)C(C)(C)NC(=O)[C@H](CCC(N)=O)NC(=O)[C@H](C)NC(=O)[C@H](CCC(N)=O)NC(=O)[C@H](CCCN)NC(=O)[C@H](CC(=O)O)NC(=O)[C@H](CC(C)C)NC(=O)[C@](C)(CC(C)C)NC(=O)[C@@H](NC(=O)C(C)(C)NC(=O)[C@H](Cc1ccncc1)NC(=O)[C@H](CC(=O)O)NC(=O)[C@H](CO)NC(=O)[C@@H](NC(=O)[C@](C)(Cc1ccccc1F)NC(=O)[C@@H](NC(=O)CNC(=O)[C@H](CCC(=O)O)NC(=O)C(C)(C)NC(=O)[C@@H](N)Cc1ccc(O)cc1)[C@@H](C)O)[C@@H](C)O)[C@@H](C)CC)[C@@H](C)CC)C(=O)N[C@@H](CCCCNC(=O)COCCOCCNC(=O)COCCOCCNC(=O)COCCOCCNC(=O)CC[C@H](NC(=O)CCCCCCCCCOc1ccc(C(=O)O)cc1)C(=O)O)C(=O)NCC(=O)NCC(=O)N1CCC[C@H]1C(=O)N[C@@H](CO)C(=O)N[C@@H](CO)C(=O)NCC(=O)N[C@@H](C)C(=O)N1CCC[C@H]1C(=O)N1CCC[C@H]1C(=O)N1CCC[C@H]1C(=O)N[C@@H](CO)C(N)=O [Example 477] | 0.00861 | 0.163 | > 9950 | > 9950 | 0.143 | 110 | 0.143 | 0.0279 |  |  |  |  |  |  |  |  | Emax ([1]; HEK293, read-out: hGIPR Emax, % ± SEM, cAMP, 37° C., 0.1% bovine casein and 1.0% human serum albumin): 88.1%; Emax ([4]; HEK293, read-out: hGLP-1R Emax, % ± SEM, cAMP, 37° C., 0.1% bovine casein and 1.0% human serum albumin): 110%
